Experimental data from US11066369B2, “N-(pyridin-2-yl)pyridine-sulfonamide derivatives and their use in the treatment of disease” (Novartis AG, priority 2016, dated 2021).
Structures can show the parent of a compound that is named as a salt.

Experiments:
[1] = biological target: T1, horseradish peroxidase (HRP) tagged delF508-CFTR (Homo sapiens, UniProt P13569, DEL508-508); assay: Measurement of delF508-CFTR-HRP surface expression in CFBE41o- cells; type: cell-based; conditions: delF508-CFTR-HRP surface expression, CFBE41o- cells; for Emax: read-out: DelF508-CFTR-HRP Amax %; for EC50: read-out: DelF508-CFTR-HRP EC50;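 for DelF508-CFTR-HRP Amax %: percent efficacy relative to reference corrector lumacaftor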
T1 construct: expressed in transfected cells
T1 sequence (P13569 with tags, fused parts or gaps DEL508-508): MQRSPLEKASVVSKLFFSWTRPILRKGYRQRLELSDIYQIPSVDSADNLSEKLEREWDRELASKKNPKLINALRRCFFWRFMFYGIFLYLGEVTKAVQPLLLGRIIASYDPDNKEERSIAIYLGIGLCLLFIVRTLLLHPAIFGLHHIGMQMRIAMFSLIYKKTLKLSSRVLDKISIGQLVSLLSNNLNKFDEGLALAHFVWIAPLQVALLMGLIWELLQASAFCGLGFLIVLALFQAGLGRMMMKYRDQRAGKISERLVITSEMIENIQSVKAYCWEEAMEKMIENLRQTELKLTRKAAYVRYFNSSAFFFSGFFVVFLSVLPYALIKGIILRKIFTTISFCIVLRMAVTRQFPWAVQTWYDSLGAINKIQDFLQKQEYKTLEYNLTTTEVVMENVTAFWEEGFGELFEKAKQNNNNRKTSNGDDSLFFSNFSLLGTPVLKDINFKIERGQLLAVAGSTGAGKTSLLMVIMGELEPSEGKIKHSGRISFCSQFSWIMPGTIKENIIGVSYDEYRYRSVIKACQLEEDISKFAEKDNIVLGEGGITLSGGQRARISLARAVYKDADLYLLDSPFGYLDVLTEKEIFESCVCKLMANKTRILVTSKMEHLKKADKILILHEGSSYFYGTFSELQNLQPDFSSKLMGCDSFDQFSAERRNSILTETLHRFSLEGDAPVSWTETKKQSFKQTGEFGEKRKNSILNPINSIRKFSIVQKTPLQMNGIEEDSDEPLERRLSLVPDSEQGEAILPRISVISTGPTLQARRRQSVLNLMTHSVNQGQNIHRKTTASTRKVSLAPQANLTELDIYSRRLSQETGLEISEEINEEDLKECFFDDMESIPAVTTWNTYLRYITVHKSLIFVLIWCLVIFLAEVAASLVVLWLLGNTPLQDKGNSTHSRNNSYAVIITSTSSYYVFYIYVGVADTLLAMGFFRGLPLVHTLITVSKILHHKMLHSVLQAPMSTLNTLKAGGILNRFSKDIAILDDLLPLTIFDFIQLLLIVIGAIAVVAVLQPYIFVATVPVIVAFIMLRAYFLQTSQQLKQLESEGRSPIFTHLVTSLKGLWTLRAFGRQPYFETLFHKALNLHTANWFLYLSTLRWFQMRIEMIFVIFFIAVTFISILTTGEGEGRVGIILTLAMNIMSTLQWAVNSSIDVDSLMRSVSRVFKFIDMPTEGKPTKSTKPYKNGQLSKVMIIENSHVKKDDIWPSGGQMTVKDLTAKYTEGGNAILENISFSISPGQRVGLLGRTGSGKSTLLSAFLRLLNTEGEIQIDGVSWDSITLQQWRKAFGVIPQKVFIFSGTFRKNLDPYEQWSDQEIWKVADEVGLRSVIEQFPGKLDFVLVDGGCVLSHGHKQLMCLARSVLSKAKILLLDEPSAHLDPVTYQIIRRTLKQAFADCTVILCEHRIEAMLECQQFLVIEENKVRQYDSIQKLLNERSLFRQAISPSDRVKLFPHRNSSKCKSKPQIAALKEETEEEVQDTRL
Procedure, shortened: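 Surface-trafficked delF508-CFTR detected via extracellular HRP tag, read as luminescence from a membrane-impermeant substrate in CFBE41o- cells. Cells pre-induced 48h with 500 ng/mL doxycycline, then exposed 24h at 37° C to a 10-point, 3-fold dilution series from 10 μM (DMSO ≤0.5%). Triplicate dose-responses fitted logistically for EC50 after per-plate normalization; fold change versus reference compound.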

[2] = biological target: T2, delF508-CFTR (Homo sapiens, UniProt P13569, DEL508-508); assay: Measurement of delF508-CFTR functional activity in primary human bronchial epithelial cells (HBECs) using Multi-Transepithelial Clamp Circuit (MTECC-24) assay; type: cell-based; conditions: primary CF HBECs; for MTECC24 CFHBEC- Amax %: test compound added 24h before assay plus potentiator, relative to reference combination (2 μM corrector + 0.5 μM potentiator); for EC50: test compound added 24h before assay, in the presence of potentiator, mean of at least two replicates, read-out: MTECC24 CFHBEC- EC50
T2 construct: functional activity of the CFTR channel (Chloride ion transport) in patient derived primary human bronchial epithelial cells; host or cells: patient-derived primary human bronchial epithelial cells (delF508-CFTR)
T2 sequence (P13569 with tags, fused parts or gaps DEL508-508): as above
Excerpt: [formula] Measurement of delF508-CFTR Functional Activity in Primary Human Bronchial Epithelial Cells (HBECs) Using Multi-Transepithelial Clamp Circuit (MTECC-24) Assay
This assay measures the functional activity of the CFTR channel (Chloride ion transport) in patient derived primary human bronchial epithelial cells with forskolin activation and in the presence of the CFTR corrector/potentiator combo.
Primary human delF508-CFTR bronchial epithelial cells were purchased from Asterand and cultured according to previously established methods (Fulcher et al. (2005) Methods Mol Med 107: 183-206). Briefly, vendor supplied cells were rapidly defrosted and added to a T175 flask in 50 mL growth media (Lonza BEBM media with Lonza BEGM singlequots). Media was replaced after 24h and then cells were fed every other day until cells were 80-90% confluent, at which point cells were cryopreserved. These P1 vials were thawed at 37° C. as needed and added to T175 flasks in 50 mL growth media at 5×10^5 cells/flask. Media was replaced after 24h, and then cells were fed every other day until 80-90% confluent. Cells were lifted with 5 mL accutase at 37° C. for 5 minutes, centrifuged at 1000 rpms for 5 min (300 g), and resuspended in differentiation media (50% BEBM in DMEM, BEGM singlequots, all trans retinoic acid (5×10^−8M)). Cells were then counted and cell suspension was added to collagen coated inserts at 3×10^4 cells/insert in 0.15 mL with 0.5 mL differentiation media on the basolateral side.
Apical and basolateral media were replaced on alternate days, and following day 7 (or when confluent plus 2 days), air liquid interface was established for approximately two weeks by removal of apical media. One day prior to use on the MTECC24 system (EP-Devices, EP Design, Belgium), 0.15 mL of warmed (37° C.) PBS was added to the apical surface of the cultures and returned to humidifier (37° C., 5% CO2 incubator) for 30 min before aspirating the apical surface to remove any mucus.
Compound treatments were then prepared. Compound dilutions, typically a 10 point concentration response with 1 in 3 dilution steps, were made in 100% DMSO before dilution 1 in 1000 into differentiation medium with a final DMSO concentration of 0.1% or 0.2% for the study. Compound containing medium was then transferred into the wells of a 24 well plate at 0.5 mL per well and warmed for 30 min in a 37° C. incubator prior to transferring washed inserts into the compound containing plates. Cells were incubated in compound containing medium (basolateral only) for 24h prior to measurement in the MTECC24 system.
Following 24 hr treatment, compound dilutions were prepared again, diluted 1 in 1000 into 37° C. assay medium (F-12 Coon's modified, 20 mM HEPES pH7.4 with TRIS Base, No FCS or bicarbonate). Cells which were treated for 24h with test compound were then transferred into plates containing 0.75 mL compound treatment in assay medium (basolateral) and 0.25 mL of the compound containing assay medium was added to the apical surface. The plates were then transferred to the heated plate compartments of the MTECC24 system for 45 min prior to measurements (this can also be done in a non-CO2 37° C. humidified incubator). Basolateral temperature should not exceed 36.5° C. and apical temperature should be approximately 35.5° C.
Modulators were added sequentially as follows while the MTECC24 instrument recorded the equivalent short circuit current (Ieq):
Prior to dilution into F-12 medium the stocks are as follows:
Amiloride stock is 10 mM in H2O
Forskolin Stock is 10 mM in 100% DMSO
(S)-3-amino-6-methoxy-N-(3,3,3-trifluoro-2-hydroxy-2-methylpropyl)-5-(trifluoromethyl)picolinamide is 0.5 mM stock in 100% DMSO
INH-172 (4-[[4-Oxo-2-thioxo-3-[3-trifluoromethyl)phenyl]-5-thiazolidinylidene]methyl]benzoic acid) stock is 30 mM in 100% DMSO
The data was normalized using the median signal from wells treated with 0.1% DMSO as a baseline. […]

Row | Emax [1] [%] | EC50 [1] [nM] | MTECC24 CFHBEC- Amax % [2] [%] | EC50 [2] [nM] | Compound
1 | 218 | 1520 | 67.4 | 64.9 | Cc1ccccc1-c1nc(NS(=O)(=O)c2cccc(OC3CC(C(=O)O)C3)n2)ccc1C(F)(F)F (mixture of isomers) [Example 331, 3-((6-(N-(6-(o-tolyl)-5-(trifluoromethyl)pyridin-2-yl)sulfamoyl)pyridin-2-yl)oxy)cyclobutanecarboxylic Acid]
2 | 370 | 3160 | 60.8 | 107 | CO[C@@H]1CNCC[C@H]1Nc1cccc(S(=O)(=O)Nc2ccc(C(F)(F)F)c(-c3ccccc3C)n2)n1 (racemic) [Example 116, 6-(((3R,4R)-3-methoxypiperidin-4-yl)amino)-N-(6-(o-tolyl)-5-(trifluoromethyl)pyridin-2-yl)pyridine-2-sulfonamide Hydrochloride]
3 |  | 1070 | 77.9 | 1.5 | Cc1ccccc1-c1nc(NS(=O)(=O)c2cccc(N[C@@H]3CCOC[C@@H]3O)n2)ccc1C(F)(F)F (racemic) [Example 275, rac-6-{[(3RS,4RS)-3-hydroxyoxan-4-yl]amino}-N-[6-(2-methylphenyl)-5-(trifluoromethyl)pyridin-2-yl]pyridine-2-sulfonamide]
4 | 844 | 1960 | 96.3 | 2.5 | Cc1ccccc1-c1nc(NS(=O)(=O)c2cccc(N[C@@H]3COCC[C@@H]3O)n2)ccc1C(F)(F)F (racemic) [Example 280, rac-6-{[(3RS,4SR)-4-hydroxyoxan-3-yl]amino}-N-[6-(2-methylphenyl)-5-(trifluoromethyl)pyridin-2-yl]pyridine-2-sulfonamide]
5 | 616 | 1440 | 71.4 | 46.6 | Cc1cccc(C)c1-c1nc(NS(=O)(=O)c2cccc(O[C@@H]3COC[C@@H]3O)n2)ccc1Cl (racemic) [Example 290, rac-N-[5-chloro-6-(2,6-dimethylphenyl)pyridin-2-yl]-6-{[(3R,4S)-4-hydroxyoxolan-3-yl]oxy}pyridine-2-sulfonamide]
6 | 496 | 2500 | 73.6 | 13.3 | Cc1ccccc1-c1nc(NS(=O)(=O)c2cccc(O[C@@H]3COC[C@@H]3O)n2)ccc1C(F)(F)F (racemic) [Example 291, rac-6-{[(3RS,4SR)-4-hydroxyoxolan-3-yl]oxy}-N-[6-(2-methylphenyl)-5-(trifluoromethyl)pyridin-2-yl]pyridine-2-sulfonamide]
7 | 590 | 1960 | 78.6 | 22 | Cc1ccccc1-c1nc(NS(=O)(=O)c2cccc(O[C@@H]3COCC3(C)O)n2)ccc1C(F)(F)F (mixture of isomers) [Example 293, rac-6-{[(3RR,4SR)-4-hydroxy-4-methyloxolan-3-yl]oxy}-N-[6-(2-methylphenyl)-5-(trifluoromethyl)pyridin-2-yl]pyridine-2-sulfonamide]
8 | 264 | 2780 | 74.7 | 33.1 | Cc1ccccc1-c1nc(NS(=O)(=O)c2cccc(N[C@@H]3CCNC[C@@H]3F)n2)ccc1C(F)(F)F (relative stereo) [Example 117, 6-(((3S,4R)-3-fluoropiperidin-4-yl)amino)-N-(6-(o-tolyl)-5-(trifluoromethyl)pyridin-2-yl)pyridine-2-sulfonamide Hydrochloride]
9 | 523 | 3200 | 84.7 | 18.5 | Cc1ccccc1-c1nc(NS(=O)(=O)c2cccc(N[C@@H]3CCOC[C@@H]3O)n2)ccc1C(F)(F)F (single isomer, unassigned) [Example 276]
10 | 817 | 2010 | 85.1 | 4.6 | Cc1ccccc1-c1nc(NS(=O)(=O)c2cccc(N[C@H]3CCOC[C@H]3O)n2)ccc1C(F)(F)F (single isomer, unassigned) [Example 277]
11 | 680 | 2010 | 85.9 | 3.7 | Cc1ccccc1-c1nc(NS(=O)(=O)c2cccc(N[C@@H]3COCC[C@@H]3O)n2)ccc1C(F)(F)F (single isomer, unassigned) [Example 281]
12 |  | 1880 | 69.6 | 2.4 | Cc1ccccc1-c1nc(NS(=O)(=O)c2cccc(N[C@H]3COCC[C@H]3O)n2)ccc1C(F)(F)F (single isomer, unassigned) [Example 282]
13 | 641 | 2360 | 81.9 | 11 | Cc1ccccc1-c1nc(NS(=O)(=O)c2cccc(O[C@@H]3COC[C@]3(C)O)n2)ccc1C(F)(F)F (single isomer, unassigned) [Example 294]
14 | 468 | 2030 | 68.7 | 26.1 | Cc1ccccc1-c1nc(NS(=O)(=O)c2cccc(O[C@@H]3COC[C@@]3(C)O)n2)ccc1C(F)(F)F (single isomer, unassigned) [Example 295]
15 | 255 | 3220 | 54.3 | 30 | Cc1ccccc1-c1nc(NS(=O)(=O)c2cccc(O[C@@H]3COC[C@@H]3O)n2)ccc1C(F)(F)F (single isomer, unassigned) [Example 296]
16 | 867 | 1780 | 78.9 | 4 | Cc1ccc(F)cc1-c1nc(NS(=O)(=O)c2cccc(N)n2)ccc1C(F)(F)F [Example 1, 6-amino-N-(6-(5-fluoro-2-methylphenyl)-5-(trifluoromethyl)pyridin-2-yl)pyridine-2-sulfonamide]
17 | 724 | 967 | 75.5 | 8 | Cc1cccc(C)c1-c1nc(NS(=O)(=O)c2cccc(N)n2)ccc1C(F)(F)F [Example 2, 6-amino-N-(6-(2,6-dimethylphenyl)-5-(trifluoromethyl)pyridin-2-yl)pyridine-2-sulfonamide]
18 |  |  | 59.5 | 31.8 | Cc1ccccc1-c1nc(NS(=O)(=O)c2cccc(N3CC[C@@H](N)[C@@H](F)C3)n2)ccc1C(F)(F)F [Example 111, 6-((3S,4R)-4-amino-3-fluoropiperidin-1-yl)-N-(6-(o-tolyl)-5-(trifluoromethyl)pyridin-2-yl)pyridine-2-sulfonamide Hydrochloride]
